Source: US12077503B2, “Substituted cyclic amides and their use as herbicides” (FMC CORPORATION, priority 2015, dated 2024)

Legend:
Format in all cases: in vivo
Kochia (Kochia scoparia) [1] = assay: Test A preemergence; conditions: Bassia scoparia, pre-emergence, 240 h, 0 to 100 scale where 0 is no effect and 100 is complete control, read-out: Kochia plant response rating
Summary of the method: (§1)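 Visual injury scores from 0, no effect, to 100, complete control, were assigned versus untreated controls roughly 10 d after treatment in the greenhouse. Test chemicals, formulated with surfactant in a non-phytotoxic solvent, were applied to planted seeds as a preemergence soil spray or postemergence to one- to two-leaf plants 2 to 10 cm tall, in loam–sand soil.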

[2] = test system: barnyardgrass (Echinochloa crus-galli); assay: Test A preemergence; conditions: Echinochloa crus-galli, pre-emergence, 240 h, 0 to 100 scale where 0 is no effect and 100 is complete control, read-out: Barnyardgrass plant response rating
Summary of the method: as §1

[3] = test system: giant foxtail (Setaria faberii); assay: Test A preemergence; conditions: Setaria faberi, pre-emergence, 240 h, 0 to 100 scale where 0 is no effect and 100 is complete control, read-out: Foxtail, Giant plant response rating
Summary of the method: as §1

[4] = test system: pigweed (Amaranthus retroflexus); assay: Test A preemergence; conditions: Amaranthus retroflexus, pre-emergence, 240 h, 0 to 100 scale where 0 is no effect and 100 is complete control, read-out: Pigweed plant response rating
[5] = test system: ragweed (common ragweed, Ambrosia elatior); assay: Test A preemergence; conditions: Ambrosia artemisiifolia, pre-emergence, 240 h, 0 to 100 scale where 0 is no effect and 100 is complete control, read-out: Ragweed plant response rating
Summary of the method: as §1

[6] = test system: ryegrass, Italian (Italian ryegrass, Lolium multiflorum); assay: Test A preemergence; conditions: Lolium multiflorum, pre-emergence, 240 h, 0 to 100 scale where 0 is no effect and 100 is complete control, read-out: Ryegrass, Italian plant response rating
Summary of the method: as §1

[7] = test system: Galium (catchweed bedstraw, Galium aparine); assay: Test A postemergence; conditions: Galium, post-emergence, 240 h
Summary of the method: as §1

Kochia (Kochia scoparia) [8] = assay: Test A postemergence; conditions: Bassia scoparia, post-emergence, 240 h
Summary of the method: as §1

[9] = test system: barnyardgrass (Echinochloa crus-galli); assay: Test A postemergence; conditions: Echinochloa crus-galli, post-emergence, 240 h
Summary of the method: as §1

[10] = test system: blackgrass (Alopecurus myosuroides); assay: Test A postemergence; conditions: Alopecurus myosuroides, post-emergence, 240 h
Summary of the method: as §1

corn (Zea mays) = assay: Test A postemergence; conditions: Zea mays, post-emergence, 240 h
Summary of the method: as §1

[11] = test system: giant foxtail (Setaria faberii); assay: Test A postemergence; conditions: Setaria faberi, post-emergence, 240 h
Summary of the method: as §1

[12] = test system: pigweed (Amaranthus retroflexus); assay: Test A postemergence; conditions: Amaranthus retroflexus, post-emergence, 240 h
Summary of the method: as §1

[13] = test system: ragweed (common ragweed, Ambrosia elatior); assay: Test A postemergence; conditions: Ambrosia artemisiifolia, post-emergence, 240 h
Summary of the method: as §1

[14] = test system: ryegrass, Italian (Italian ryegrass, Lolium multiflorum); assay: Test A postemergence; conditions: Lolium multiflorum, post-emergence, 240 h
Summary of the method: as §1

[15] = test system: wheat (Triticum aestivum); assay: Test A postemergence; conditions: Triticum aestivum, post-emergence, 240 h
Summary of the method: as §1

[16] = test system: barnyardgrass (Echinochloa crus-galli); assay: Test B flooded paddy test; conditions: Echinochloa crus-galli, 250 g ai/ha, Flood; 0 to 100 scale where 0 is no effect and 100 is complete control; read-out: Barnyardgrass plant response rating
Summary of the method: (§2)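 Rating scale 0–100 (visual, vs untreated controls) after a 13–15 d greenhouse period; application to the flood layer, 3 cm above soil and maintained; plants at 2-leaf stage when treated.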

[17] = test system: ducksalad (Heteranthera limosa); assay: Test B flooded paddy test; conditions: Heteranthera limosa, 250 g ai/ha, Flood; 0 to 100 scale where 0 is no effect and 100 is complete control; read-out: Ducksalad plant response rating
Summary of the method: as §2

rice (Oryra sativa) = assay: Test B flooded paddy test; conditions: Oryza sativa, 250 g ai/ha, Flood; 0 to 100 scale where 0 is no effect and 100 is complete control; read-out: Rice plant response rating
Summary of the method: as §2

[18] = test system: sedge, umbrella (small-flower umbrella sedge, Cyperus difformis); assay: Test B flooded paddy test; conditions: Cyperus difformis, 250 g ai/ha, Flood; 0 to 100 scale where 0 is no effect and 100 is complete control; read-out: Sedge, Umbrella plant response rating
Summary of the method: as §2

[19] = 125 g ai/ha, preemergence, approx. 10 d

Work on `CN1C[C@H](c2cccc([Si](C)(C)C)c2)[C@@H](C(=O)Nc2cccc(F)c2F)C1=O` [Compound 1166] yielded a pest or weed control at 31 g/ha (Kochia (Kochia scoparia) [1]; 31 g ai/ha, Preemergence) of 0%, a pest or weed control at 125 g/ha (Kochia (Kochia scoparia) [1]; [19]) of 0% and a pest or weed control at 31 g/ha ([2]; 31 g ai/ha, Preemergence) of 0%. For the same compound, the pest or weed control at 125 g/ha [2, 19] was 20%, the pest or weed control at 31 g/ha ([3]; 31 g ai/ha, Preemergence) was 20% and the pest or weed control at 125 g/ha [3, 19] was 80%. It also gave a pest or weed control at 31 g/ha ([4]; 31 g ai/ha, Preemergence) of 0%, a pest or weed control at 125 g/ha [4, 19] of 0% and a pest or weed control at 31 g/ha ([5]; 31 g ai/ha, Preemergence) of 0%. The pest or weed control at 125 g/ha [5, 19] was 0%, the pest or weed control at 31 g/ha ([6]; 31 g ai/ha, Preemergence) was 0% and the pest or weed control at 125 g/ha [6, 19] was 0%. It also gave a pest or weed control at 125 g/ha ([7]; 125 g ai/ha, postemergence, visual injury vs untreated controls after approx. 10 d, 0 = no effect, 100 = complete control, read-out: Galium plant response rating (0 to 100 scale)) of 0%, a pest or weed control at 31 g/ha ([7]; Postemergence, 31 g ai/ha, visual injury after approx. 10 d, 0 to 100 scale, 0 no effect, 100 complete control, read-out: Plant response rating, Galium) of 0% and a pest or weed control at 125 g/ha (Kochia (Kochia scoparia) [8]; 125 g ai/ha, postemergence, visual injury vs untreated controls after approx. 10 d, 0 = no effect, 100 = complete control, read-out: Kochia plant response rating (0 to 100 scale)) of 0%. It also gave a pest or weed control at 31 g/ha (Kochia (Kochia scoparia) [8]; Postemergence, 31 g ai/ha, visual injury after approx. 10 d, 0 to 100 scale, 0 no effect, 100 complete control, read-out: Plant response rating, Kochia) of 0%, a pest or weed control at 125 g/ha ([9]; 125 g ai/ha, postemergence, visual injury vs untreated controls after approx. 10 d, 0 = no effect, 100 = complete control, read-out: Barnyardgrass plant response rating (0 to 100 scale)) of 0% and a pest or weed control at 31 g/ha ([9]; Postemergence, 31 g ai/ha, visual injury after approx. 10 d, 0 to 100 scale, 0 no effect, 100 complete control, read-out: Plant response rating, Barnyardgrass) of 0%. It also gave a pest or weed control at 125 g/ha ([10]; 125 g ai/ha, postemergence, visual injury vs untreated controls after approx. 10 d, 0 = no effect, 100 = complete control, read-out: Blackgrass plant response rating (0 to 100 scale)) of 0%, a pest or weed control at 31 g/ha ([10]; Postemergence, 31 g ai/ha, visual injury after approx. 10 d, 0 to 100 scale, 0 no effect, 100 complete control, read-out: Plant response rating, Blackgrass) of 0% and a plant injury at 125 g/ha (corn (Zea mays); 125 g ai/ha, postemergence, visual injury vs untreated controls after approx. 10 d, 0 = no effect, 100 = complete control, read-out: Corn plant response rating (0 to 100 scale)) of 0%. It also gave a Corn plant response rating (crop injury, 0 = no effect, 100 = complete kill) at 31 g/ha (corn (Zea mays); Postemergence, 31 g ai/ha, visual injury after approx. 10 d, 0 to 100 scale, 0 no effect, 100 complete control) of 0%, a pest or weed control at 125 g/ha ([11]; 125 g ai/ha, postemergence, visual injury vs untreated controls after approx. 10 d, 0 = no effect, 100 = complete control, read-out: Foxtail, Giant plant response rating (0 to 100 scale)) of 20% and a pest or weed control at 31 g/ha ([11]; Postemergence, 31 g ai/ha, visual injury after approx. 10 d, 0 to 100 scale, 0 no effect, 100 complete control, read-out: Plant response rating, Foxtail, Giant) of 0%. For the same compound, the pest or weed control at 125 g/ha ([12]; 125 g ai/ha, postemergence, visual injury vs untreated controls after approx. 10 d, 0 = no effect, 100 = complete control, read-out: Pigweed plant response rating (0 to 100 scale)) was 0%, the pest or weed control at 31 g/ha ([12]; Postemergence, 31 g ai/ha, visual injury after approx. 10 d, 0 to 100 scale, 0 no effect, 100 complete control, read-out: Plant response rating, Pigweed) was 0% and the pest or weed control at 125 g/ha ([13]; 125 g ai/ha, postemergence, visual injury vs untreated controls after approx. 10 d, 0 = no effect, 100 = complete control, read-out: Ragweed plant response rating (0 to 100 scale)) was 0%. The pest or weed control at 31 g/ha ([13]; Postemergence, 31 g ai/ha, visual injury after approx. 10 d, 0 to 100 scale, 0 no effect, 100 complete control, read-out: Plant response rating, Ragweed) was 0%, the pest or weed control at 125 g/ha ([14]; 125 g ai/ha, postemergence, visual injury vs untreated controls after approx. 10 d, 0 = no effect, 100 = complete control, read-out: Ryegrass, Italian plant response rating (0 to 100 scale)) was 0% and the pest or weed control at 31 g/ha ([14]; Postemergence, 31 g ai/ha, visual injury after approx. 10 d, 0 to 100 scale, 0 no effect, 100 complete control, read-out: Plant response rating, Ryegrass, Italian) was 0%. For the same compound, the plant injury at 125 g/ha ([15]; 125 g ai/ha, postemergence, visual injury vs untreated controls after approx. 10 d, 0 = no effect, 100 = complete control, read-out: Wheat plant response rating (0 to 100 scale)) was 0%, the plant injury at 31 g/ha ([15]; Postemergence, 31 g ai/ha, visual injury after approx. 10 d, 0 to 100 scale, 0 no effect, 100 complete control, read-out: Plant response rating, Wheat) was 0% and the pest or weed control at 250 g/ha [16] was 40%. It also gave a pest or weed control at 250 g/ha [17] of 30%, a pest or weed control at 250 g/ha (rice (Oryra sativa)) of 25% and a pest or weed control at 250 g/ha [18] of 0%.
